For three molecules, inhibition in vivo and inhibition results are on record in ChEMBL document CHEMBL6092184, “Talauromides A-G, Nitrogen-Containing Heptacyclic Oligophenalenone Dimers from the Soil Fungus Talaromyces stipitatus BMC-16” (2024).

Active and inactive are the calls of the source. The calls are words filed in the database; no cut-off is given here.

Assay [1] in a line: In-vivo inhibition of BIO-induced Wnt/beta-catenin signaling pathway in zebrafish embryo assessed as reversal of eyeless phenotype to small and normal like eyes at 20 uM measured at 48 hrs post fertilization. Format: functional. The note with it: Danio rerio.
The test system of assay [2] is HEK293T. The assay can be described thus: Inhibition of Wnt/beta-catenin signaling pathway in HEK293T cells assessed as downregulation of BIO-induced nonphosphorylated beta-catenin level at 20 uM incubated for 12 hrs by immunoblotting analysis. Format: cell-based. The note with it: Homo sapiens.

As usually defined, the inhibition in vivo is the change of the read-out against control, counted positive when it falls. On to `CC(=O)O[C@H]1[C@@H]2C(=O)c3c(C)cc(O)c4c3[C@@]1(COC4=O)c1c(O)c3c4c(c(O)cc(C)c4c12)C(=O)OC3`, for which the inhibition in vivo at 20 µM in assay [1] came to 100%. In addition, in assay [2], the inhibition result was “Active”.
On the same counts, the results for `Cc1cc(O)c2c3c1C(=O)[C@@H]1C4=C(C(=O)c5cn(CCCC(=O)O)c(=O)c6c(O)cc(C)c4c56)[C@@]3(COC2=O)[C@H]1O` are 96.6% and “Active”.
The matching figures for `CC(=O)O[C@H]1[C@@H]2C(=O)c3c(C)cc(O)c4c3[C@@]1(COC4=O)c1c(O)c3c4c(c(O)cc(C)c4c12)C(=O)O3`: 80% and “Active”.
